Data from PMC4589873, “A pain-inducing centipede toxin targets the heat activation machinery of nociceptor TRPV1” (Nature Communications, 2015).
Entries after “also recorded” stand apart in the source; their conditions may differ. Where a SMILES comes first, the peptide text is derived from it. Bridges are numbered along the chain shown (N, C = ends).

Legend:
mTRPV3 = test: Selectivity recording on mTRPV3; type: cell-based, mouse; conditions: RhTx at 10 μM
Method: (§1) As described in details in a previous report, macroscopic currents (in whole-cell, inside-out or outside-out configuration) as well as single-channel currents were recorded using a HEKA EPC10 amplifier with the PatchMaster software (HEKA). Both pipette solution and bath solution contained 130 mM NaCl, 3 mM HEPES and 0.2 mM EDTA (pH 7.2). All recordings were performed at room temperature unless otherwise stated. A holding potential of 0 mV was used from which a testing pulse to +80 mV was applied. Statistical difference was determined using the Student’s t-test, and indicated by ** when reaching the significance level P<0.001.
(§2) Supplementary Figure 3. […]
(§3) mTRPV2 (c), mTRPV3 (d) and mTRPV4 (e). (f) Treatment with 10 μM RhTx (red traces)

mTRPV2 = test: Selectivity recording on mTRPV2; type: cell-based, mouse; conditions: RhTx at 10 μM
Method: as §1, §2, §3

mTRPV4 = test: Selectivity recording on mTRPV4; type: cell-based, mouse; conditions: RhTx at 10 μM
Method: as §1, §2, §3

[1] = tested on: voltage-gated Na channels; test: Selectivity recording on voltage-gated Na channels; type: cell-based; conditions: 10 μM RhTx compared to toxin-free treatment
Method: as §2, §3

hTRPV1 = test: Whole-cell recording of hTRPV1; type: cell-based, human
Method: as §1
Supplementary Figure 3. […] (a) A representative whole-cell recording of hTRPV1 treated with RhTx or capsaicin. (b) Comparison of the dose-response relationships between hTRPV1 and mTRPV1. […]
mTRPV2 (c), mTRPV3 (d) and mTRPV4 (e). (f) Treatment with 10 μM RhTx (red traces) […]
(1 picture or pasted object on this page, not shown here)

TRPV1 [2] = test: Cooling of RhTx- or capsaicin-induced channel activation; type: cell-based; conditions: RhTx at 1 μM
Method: as §1

[3] = tested on: mTRPV1 point mutants at D602, Y632, T634 and L461; test: Calcium imaging of mTRPV1 point mutants; type: cell-based, mouse; conditions: glycine or alanine mutation; 10 μM RhTx, 10 μM capsaicin
Text: TRPV1 and TRPV3 chimeras used in this study were generated by the overlapping extension method[54] and confirmed by DNA sequencing, as described previously. Briefly, to generate V1/3S, the primer pairs (5′-[…]-3′and 5′-[…]-3′) were used. To generate other TRPV1/TRPV3 chimeras, the enzyme cutting sites by MluI were made by the primer pair (5′-[…]-3′ and 5′-[…]-3′) for TRPV1 and the primer pair (5′-[…]-3′ and 5′-[…]-3′) for TRPV3. The enzyme cutting sites by PvuI were made by the primer pair (5′-[…]-3′ and 5′-[…]-3′) for TRPV1 and the primer pair (5′-[…]-3′ and 5′-[…]-3′) for TRPV3. The enzyme cutting sites by BsiWI were made by the primer pair (5′-[…]-3′ and 5′-[…]-3′) for TRPV1 and the primer pair (5′-[…]-3′ and 5′-[…]-3′) for TRPV3. […]
Mouse DRG neurons were acutely dissociated and maintained in a short-term primary culture according to procedures as previous descripted. […] Fluorescence images of DRG neurons and HEK-293T cells were acquired with an Olympus IX81 microscope with Hamamatsu C4742 charge-coupled device camera controlled by the MetaFluor Software (Molecular Devices). Fluo-4 was excited by a mercury vapour light source with a 500/20-nm excitation filter, while fluorescence emission was detected with a 535/30-nm emission filter. Fluorescence images were required with automated routines written in MetaMorph software (Molecular Devices) and analysed with Igor Pro (Wavemetrics).

TRPV1 [4] = test: Single-channel recording of TRPV1; type: cell-based; conditions: single-channel analysis
Method: as §1

mTRPV1 = target: T1, mTRPV1 (Mus musculus, UniProt Q704Y3); test: Inside-out patch, toxin applied from the intracellular side; type: cell-based; conditions: inside-out patch containing mTRPV1, holding 0 mV, testing +80 mV
T1 construct: expressed in transfected cells; host or cells: HEK-293T
T1 sequence (Q704Y3 whole entry): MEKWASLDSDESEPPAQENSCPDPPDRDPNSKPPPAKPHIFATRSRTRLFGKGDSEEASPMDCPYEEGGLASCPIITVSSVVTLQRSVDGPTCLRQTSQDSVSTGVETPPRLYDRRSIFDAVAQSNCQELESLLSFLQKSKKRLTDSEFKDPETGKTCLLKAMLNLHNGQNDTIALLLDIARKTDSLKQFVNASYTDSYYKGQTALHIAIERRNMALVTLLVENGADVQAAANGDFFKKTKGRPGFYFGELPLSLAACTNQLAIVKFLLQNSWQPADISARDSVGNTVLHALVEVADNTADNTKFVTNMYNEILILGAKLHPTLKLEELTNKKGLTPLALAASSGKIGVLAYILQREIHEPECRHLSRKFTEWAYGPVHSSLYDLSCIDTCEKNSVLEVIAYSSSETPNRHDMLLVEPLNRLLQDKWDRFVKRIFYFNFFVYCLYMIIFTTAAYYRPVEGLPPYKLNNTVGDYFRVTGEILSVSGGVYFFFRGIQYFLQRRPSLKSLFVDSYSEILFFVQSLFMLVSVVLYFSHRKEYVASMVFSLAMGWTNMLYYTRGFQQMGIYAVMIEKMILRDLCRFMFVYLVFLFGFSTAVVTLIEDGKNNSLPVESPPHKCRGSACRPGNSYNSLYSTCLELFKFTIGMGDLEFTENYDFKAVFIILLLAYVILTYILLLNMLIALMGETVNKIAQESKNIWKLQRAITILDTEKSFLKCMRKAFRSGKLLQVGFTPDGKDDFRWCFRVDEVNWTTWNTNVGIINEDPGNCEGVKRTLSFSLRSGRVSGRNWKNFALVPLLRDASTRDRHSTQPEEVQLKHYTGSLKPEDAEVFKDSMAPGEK
Method: as §1

voltage-gated K channels = test: Selectivity recording on voltage-gated K channels; type: cell-based; conditions: 10 μM RhTx compared to toxin-free treatment
Method: as §2, §3

WT mice = test: Paw-licking assay, intraplantar injection; type: in vivo, mouse; conditions: 1 μmol per paw in 100 μl saline, 40 min observation
Method: In vivo effects of RhTx on WT mice or Trpv1^−/− mice were examined according to protocols described previously. For the paw-licking assay, pain was induced in mice by intraplantar injection of 0.1% formalin, capsaicin (1 μmol per paw) or RhTx (1 μmol per paw). Each of the testing materials was dissolved in 100 μl saline. Control mice received the same volume of saline. Injected mice were placed individually into open polyvinyl cages (20 × 40 × 15 cm). Time spent licking the injected paw was recorded by a digital video camera during the following 40 min. For recording colonic temperature from WT or Trpv1^−/− mice, mice equipped with a copper-constantan thermocouple were individually placed in open polyvinyl cages. A data logger was connected to the thermocouple. Mice were injected intraperitoneally with 100 μl saline containing capsaicin or RhTx. The dose of capsaicin or RhTx was 10 μmol kg^−1 for these experiments. Mice in the control group received the same volume of saline.
Supplementary Figure 1. Centipede crude venom -induced paw licking. Pain behavior was induced in mice b y intraplan tar injection of centipede crude venom. After crude venom injection, mice were immediately placed individually into open polyvinyl cages (20 × 40 × 15 cm). The time spent licking the injected paw was recorded by digital video camera during 0- 10 minutes […]

## CC[C@H](C)[C@H](NC(=O)[C@@H]1CSSC[C@@H]2NC(=O)[C@H]([C@@H](C)O)NC(=O)[C@H](C(C)C)NC(=O)CNC(=O)[C@H](CC(N)=O)NC(=O)[C@@H](NC(=O)[C@@H]3CCCN3C(=O)[C@H](CC(N)=O)NC(=O)[C@H](CC(N)=O)NC(=O)[C@@H](N)CC(C)C)CSSC[C@H](NC(=O)[C@H](CCCNC(=N)N)NC(=O)[C@H](Cc3ccc(O)cc3)NC(=O)CNC(=O)[C@H](CO)NC(=O)[C@@H]3CCCN3C2=O)C(=O)N[C@@H](CO)C(=O)N[C@@H]([C@@H](C)CC)C(=O)N[C@@H](C(C)C)C(=O)N[C@@H](CC(=O)O)C(=O)N[C@@H](CCCCN)C(=O)N[C@@H](CCC(N)=O)C(=O)N1)C(=O)N[C@@H](CCCCN)C(=O)N[C@@H](CCCCN)C(=O)N[C@@H](CCC(=O)O)C(=O)O [RhTx] (H-LNNPCNGVTCPSGYRCSIVDKQCIKKE-OH; disulfide 5-16, 10-23; N-terminus and C-terminus assumed)
mTRPV3
  response of TRPV3: no detectable effect; also recorded: no discernable response
mTRPV2
  response of TRPV2: no detectable effect; also recorded: no discernable response
mTRPV4
  response of TRPV4: no detectable effect; also recorded: no discernable response
[1]
  effect on voltage-gated Na channels: no detectable effect; also recorded: no discernable response
hTRPV1
  activation of human TRPV1: strongly activated
TRPV1 [2]
  effect of lowering the experimental temperature on agonist-induced channel activation: completely prohibited
[3]
  agonist-induced intracellular calcium increase in point mutants versus WT channel: markedly reduced
TRPV1 [4]
  inward single-channel current amplitude compared with capsaicin-elicited currents: noticeable reduction
  open probability: near unity
mTRPV1
  activity when applied from the intracellular side: completely ineffective; also recorded: no activity
voltage-gated K channels
  effect on voltage-gated K channels: no detectable effect; also recorded: no discernable response
WT mice
  pain behaviour (paw licking): elicited similar pain behaviour
